Tests used:
[1] = test system: Benzodiazepine receptors; assay: 3H-flunitrazepam and 3H-RO 15-1788 binding to crude synaptosomal pellets of brains of rats treated for 21 days; type: in vivo, rat
Experimental: (§1) 20 male rats, maintained on a daily 14 hour light/10 hour darkness schedule, were divided into 4 groups, each consisting of 5 members:
(§2) Group 1 (the control group): rats were injected daily with 200 μl saline intraperitoneally for 21 days and were allowed to drink tap water.
(§3) They also were provided with regular tap water.
(§4) Group 3 (the melatonin group): rats were injected daily with 200 μl saline intraperitoneally. Their only available drinking water contained 0.4% by weight melatonin.
(§5) Each group was allowed food and water ad libitum. After 21 days the treatment was stopped. The animals were decapitated between 6:00 and 7:00 p.m. the next day, their brains were rapidly removed and crude synaptosomal pellets were prepared, and melatonin receptors were assessed using 2-^125I-melatonin, as described by Laudon, M., and N. Zisapel, FEBS Lett. 197:9 (1986). Benzodiazepine receptors were assessed by measuring the binding of radioactive benzodiazepine receptor probes ^3H-flunitrazepam (^3H-FNZ) and ^3H-RO 15-1788 as described by Amiri, Z. et al. Brain Res. 553:155 (1991). Binding parameters were calculated from the equilibrium binding data. […] Binding parameters of the various groups were compared by analysis of variance followed by Student-Newman-Keul's test for multiple comparison. Differences were considered significant if P<0.05.

[2] = case study: withdrawal from benzodiazepine tolerance and sleep in a patient; type: in vivo, human
Description: This example illustrates the action of melatonin in facilitating rapid withdrawal from benzodiazepine tolerance. A person, married with two children, had been suffering from sleep onset insomnia for 10 years, accompanied by frequent and severe migraine attacks. A thorough neurological assessment was negative. Psychiatric or other organic problems also were ruled out.
The patient had been treated with benzodiazepines, tricyclic antidepressants and neuroleptic drugs, as well as biofeedback and relaxation methods with no apparent relief throughout the 10 year period. For the last year, they had been taking 4-8 mg Lorazepam every night, taking a 0.5 mg tablet every half hour or hour throughout the night. This led to difficulties when the patient arose in the morning; they would feel heavily sedated and had problems functioning at work, especially when under pressure. They began to feel that they were losing their memory and ability to concentrate.
(§6) The quality of sleep was assessed by an actigraph tracing which automatically monitors the bedtime sleep-wake pattern through a small device attached to the hand. […] Urine was collected every three hours for 36 hours and assayed for the diurnal secretion of […] melatonin.
(§7) Oral administration of a controlled release melatonin formulation in the form of tablets containing 1 mg melatonin (Neurim Pharmaceuticals, Israel) (made in accordance with the procedures set forth in example 1 for tablet SR-A) was initiated in order to correct for the deficiency and distortion of the melatonin rhythm. One tablet was administered daily at 8:30 p.m. The patient was asked to gradually reduce the number of benzodiazepine tablets taken each night.
(§8) The treatment was stopped and 2 weeks afterwards the patient's urine was collected again every three hours over a 36 hour period and assayed for 6-sulfatoxymelatonin. […] A three month follow-up confirmed that the patient maintained their quality of sleep and hardly suffered from headaches. After 6 months without treatment the patient's sleep quality began to deteriorate and melatonin therapy was resumed. The therapy restored their sleep quality and the patient continues to take 3 mg melatonin daily.

[3] = urinary 6-sulfatoxymelatonin in benzodiazepine-dependent patient after melatonin therapy; type: in vivo, human; details: for Urinary 6-sulfatoxymelatonin after treatment: 2 weeks after stopping 1 mg controlled release melatonin daily
Experimental: as §6, §7, §8

[4] = test system: melatonin receptors; assay: 2-125I-melatonin binding to crude synaptosomal pellets of brains of rats treated for 21 days; type: in vivo, rat; details: 21 days treatment
Experimental: as §1, §2, §3, §4, §5

[5] = long term melatonin in two insomnia patients dependent upon flunitrazepam; type: in vivo, human
Experimental: Two volunteers, […], a person, and […], a person, had each suffered for a number of years from insomnia and/or frequent awakenings during the night accompanied by difficulty in falling asleep again. […] Both patients had been taking 1-2 mg of flunitrazepam orally prior to retiring each evening.
Each patient was weaned off of the flunitrazepam via gradual reduction and simultaneous administration of melatonin over a two month period. During this time, each patient received 2 mg melatonin in controlled release form daily. Since the end of that two month period, each patient has been taking 2 mg oral controlled release melatonin for almost two years.
[…] Each patient also reported reduced fatigue during the daytime within several days after the beginning of the weaning period.

[6] = cerebral cortex, 21 days treatment
[7] = 1 mg controlled release melatonin tablet daily
[8] = 2 mg controlled release melatonin daily, patients

CN1C(=O)CN=C(c2ccccc2)c2cc(Cl)ccc21 [diazepam]
effect on RO 15-1788 and flunitrazepam binding sites [1, 6]: did not significantly affect | effect on the melatonin-mediated decrease in specific binding ([1]; cerebral cortex, diazepam given together with melatonin): prevented

COc1ccc2[nH]cc(CCNC(C)=O)c2c1 [melatonin]
reduction in specific binding of tritiated RO 15-1788 compared with the control group [1, 6]: 20% | reduction in specific binding of tritiated flunitrazepam compared with the control group [1, 6]: 20% | maximal binding (Bmax) of the RO-15-1788 binding sites ([1]; medulla-pons, 21 days treatment): significantly increased | headaches (patient's report) [2, 7]: subsided gradually | insomnia (patient's claim) [2, 7]: improved remarkably | time until the patient stopped using the benzodiazepine hypnotics altogether ([2]; 1 mg controlled release melatonin tablet daily at 8:30 p.m., patient on 4-8 mg Lorazepam nightly): ≤ 2 days | sleep pattern, repeated actigraph tracing ([2]; after 3 weeks of melatonin treatment): marked improvement | sleep quality after melatonin therapy was resumed ([2]; resumed after 6 months without treatment): restored | urinary 6-sulfatoxymelatonin, change after therapy ([3]; 2 weeks after treatment was stopped, urine every three hours over 36 hours): increase in amount and a clear nocturnal peak | Urinary 6-sulfatoxymelatonin after treatment ([3]; time 3.00): 0.74 µg/h | Urinary 6-sulfatoxymelatonin after treatment ([3]; time 6.00): 0.36 µg/h | Urinary 6-sulfatoxymelatonin after treatment ([3]; time 9.00): 0.21 µg/h | Urinary 6-sulfatoxymelatonin after treatment ([3]; time 12.00): 0.01 µg/h | Urinary 6-sulfatoxymelatonin after treatment ([3]; time 15.00 (first)): 0.11 µg/h | Urinary 6-sulfatoxymelatonin after treatment ([3]; time 15.00 (second)): 0.04 µg/h | Urinary 6-sulfatoxymelatonin after treatment ([3]; time 18.00): 0.45 µg/h | Urinary 6-sulfatoxymelatonin after treatment ([3]; time 21.00): 0.11 µg/h | Urinary 6-sulfatoxymelatonin after treatment ([3]; time 24.00): 1.24 µg/h | binding of melatonin compared with the control group [4]: no difference | sleep inducement (subjective report) [5, 8]: good | sleep quality (subjective report) [5, 8]: substantial improvement | residual tiredness in the morning or hangover feeling ([5]; 2 mg oral controlled release melatonin): has not caused any | side effects reported ([5]; 2 mg oral controlled release melatonin for almost two years): No side effects | fatigue during the daytime ([5]; within several days after the beginning of the weaning period): reduced
